US7960397B2, “6,9-disubstituted purine derivatives and their use as cosmetics and cosmetic compositions” (Institute of Experimental Botany, Academy of Sciences of …, priority 2007, dated 2011)
Read-outs that look alike come from different tables or passages of the source.

What was measured:
[1] = system: mouse fibroblasts NIH3T3; test: In vitro cytotoxicity, Calcein AM assay; conditions: read-out: GI50 NIH-3T3
Protocol: (§2) Because only metabolically active cells cleave Calcein AM, these assays detect viable cells exclusively. The quantity of reduced Calcein AM corresponds to the number of vital cells in the culture.
(§3) The cells were maintained in Nunc/Corning 80 cm^2 plastic tissue culture flasks and cultured in cell culture medium (DMEM with 5 g/l glucose, 2 mM glutamine, 100 U/ml penicillin, 100 mg/ml streptomycin, 10% fetal calf serum and sodium bicarbonate).
(§4) The cell suspensions that were prepared and diluted according to the particular cell type and the expected target cell density (2,500-30,000 cells per well based on cell growth characteristics) were added by pipette (80 ml) into 96-well microtiter plates. Inoculates were allowed a pre-incubation period of 24 hours at 37° C. and 5% CO2 for stabilization. Four-fold dilutions of the intended test concentration were added at time zero in 20 ml aliquots to the microtiter plate wells. Usually, the compound tested was evaluated at six 4-fold dilutions. […] All drug concentrations were examined in duplicate. Incubations of cells with the tested compounds lasted for 72 hours at 37° C., in a 5% CO2 atmosphere and 100% humidity. At the end of the incubation period, the cells were assayed by using Calcein AM. Ten microliters of the stock solution were pipetted into each well and incubated for 1 hour. Fluorescence (FD) was measured with the Labsystem FIA Reader Fluoroscan Ascent (UK).

[2] = system: excised wheat leaf tips; test: Antisenescence test, retention of chlorophyll in excised wheat leaf tips; set-up: species or system Triticum aestivum cv. Hereward; conditions: for activity (%) [10^−4 mol · l^−1 BAP = 100%]: retention of chlorophyll in excised wheat leaf tips at the concentration with highest activity, 10 replicate determinations; for concentration with highest activity: retention of chlorophyll in excised wheat leaf tips, tested range 10^−8 M to 10^−4 M, 96 h in the dark at 25° C.
Protocol: Testing of antisenescence properties of novel cytokinin compounds on wheat leaf segments. Seeds of winter wheat, Triticum aestivum cv. Hereward, were washed under running water for 24 hours and then sown on vermiculite soaked with the Knop's solution. They were placed in the grow chamber at 25° C. with a 16 h-8 h light period at 50 mmol.m^−2.s^−1. After 7 days, the first leaf was fully developed and the second leaf had started to grow. A 35 mm long tip section of the first leaf, was removed from each of 5 seedlings and trimmed slightly to a combined weight of 100 mg. The basal ends of the five leaf tips were placed in the wells of a microtiter polystyrene plate containing […] of the solution of the tested compound each. The entire plate was inserted into a plastic box lined with paper tissues soaked with distilled water to prevent leaf sections from drying out. After 96 h incubation in the dark at 25° C., the leaves were removed and chlorophyll was extracted by heating at 80° C. for 10 min in 5 ml of 80% ethanol (v/v). The sample volume was then restored to 5 ml by the addition of 80% ethanol (v/v). The absorbance of the extract was recorded at 665 nm. In addition, chlorophyll extracts from fresh leaves and leaf tips incubated in deionized water were measured. […] Relative activity of the compound at this concentration was calculated (Table 7). The activity obtained for 10^−4 M 6-benzylaminopurine (BAP) was defined as 100%. The values shown are means of five replicates and the whole experiment was repeated twice.
(§1) The compounds to be tested were dissolved in dimethylsulfoxide (DMSO) and the solution brought up to 10^−3 M with distilled water.

[3] = system: Amaranthus caudatus cotyledon/hypocotyl explants; test: Amaranthus bioassay (betacyanin content); set-up: species or system Amaranthus caudatus var. atropurpurea; conditions: for concentration with highest activity: betacyanin content after 48 h incubation, tested 10^−8 M to 10^−4 M; for Activity (%) [10^−5 mol · l^−1 BAP = 100%]: betacyanin content at the concentration with highest activity, 10^−5 M BAP = 100%
Protocol: Testing of novel compounds for typical cytokinin activity in Amaranthus bioassay. A standard Amaranthus bioassay was performed with several modifications. The seeds of Amaranthus caudatus var. atropurpurea were surface-sterilized in 10% (w/v) N-chlorobenzenesulfonamide for 10 min and washed 5 times with deionized water. They were placed in 14 cm Petri dishes containing paper tissues saturated with deionized water. After 72 h of cultivation at 25° C. in darkness, the roots of the seedlings were cut off. The explants, consisting of two cotyledons and hypocotyls, were placed in 5 cm Petri dishes onto two layers of filter paper soaked with 1 ml of the incubation medium containing 10 mmol of NA2HPO4—KH2PO4, pH 6.8, 5 mmol of tyrosine and the compound to be tested. There were 20 explants per dish. The procedure was carried out under a green safe light in a darkroom. […] The concentration of betacyanin was determined from the absorbencies at 537 nm and 620 nm as follows: DA=A537 nm−A620 nm. […] Relative activity of the compound at this concentration was calculated. The activity obtained for 10^−5 M 6-benzylaminopurine (BAP) was defined as 100%.
as §1

[4] = system: human diploid fibroblasts (HCA cells, HCA20, HCA40, HCA60); test: Senescent cells (β-galactosidase staining) in culture of human fibroblasts; format: cell-based; conditions: for SENESCENT CELLS (%) HCA20: human fibroblasts passage 20 (HCA20); for SENESCENT CELLS (%) HCA40: human fibroblasts passage 40 (HCA40); for SENESCENT CELLS (%) HCA60: human fibroblasts passage 60 (HCA60)
Protocol: In this example, human diploid fibroblasts (HCA cells of various passage levels: passage 20—designated HCA20; passage 40—designated HCA40; passage 60—designated HCA60) were stained for β-galactosidase activity. The medium used for the cell cultivation was removed, the cells were washed twice in […], and fixed in 2-3 ml of fixing solution comprised of a 2% formaldehyde and 0.2% glutaraldehyde in PBS. The cells were incubated at room temperature for 5 minutes, and then washed twice with PBS. The cells were subsequently incubated at 37° C.

[5] = system: cytokinin-dependent tobacco callus Nicotiana tabacum L. cv. Wisconsin 38; test: Cytokinin activity in tobacco callus bioassay; format: cell-based; conditions: for concentration with highest activity: growth of tobacco callus, four weeks of cultivation, tested 10^−8 M to 10^−4 M; for Activity (%) [10^−5 mol · l^−1 BAP = 100%]: increase of fresh callus weight at the concentration with highest activity, 10^−5 M BAP = 100%
Protocol: Estimation of cytokinin biological activity of novel compounds in callus bioassay. Cytokinin-dependent tobacco callus Nicotiana tabacum L. cv. […] Subcultivation was carried out every three weeks. Fourteen days before the bioassay, the callus tissue was transferred to the media without the compound tested. The biological activity was determined from the increase of the fresh callus weight after four weeks of cultivation. Five replicates were prepared for each concentration of the compound tested and the entire test was repeated twice. […] The relative activity of the compound at this concentration was calculated (Table 8). […] The compounds to be tested were dissolved in dimethylsulfoxide (DMSO) and the solution brought up to 10^−3 M with distilled water. This stock solution was further diluted with the respective media used for the biotest to a concentration ranging from 10^−8 M to 10^−4 M.

[6] = system: promyelocytic HL-60 leukemia; test: In vitro cytotoxicity, Calcein AM assay; conditions: read-out: GI50 HL60
Protocol: as §2, §3, §4

[7] = system: breast carcinoma cell line MCF-7; test: In vitro cytotoxicity, Calcein AM assay; conditions: read-out: GI50 MCF7
Protocol: as §2, §3, §4

[8] = system: human osteosarcoma HOS; test: In vitro cytotoxicity, Calcein AM assay; conditions: read-out: GI50 HOS
Protocol: as §2, §3, §4

[9] = system: Human T-lymphoblastic leukemia cell line CEM; test: In vitro cytotoxicity, Calcein AM assay; conditions: Homo sapiens, 72 h, read-out: GI50 CEM
Protocol: as §2, §3, §4

SMILES | GI50 ([1]; NIH-3T3, 72 hours, Calcein AM) [µM] | activity (%) [10^−4 mol · l^−1 BAP = 100%] [2] [%] | concentration with highest activity [2] | concentration with highest activity [3] | Activity (%) [10^−5 mol · l^−1 BAP = 100%] [3] [%] | SENESCENT CELLS (%) HCA20 [4] [%] | SENESCENT CELLS (%) HCA40 [4] [%] | SENESCENT CELLS (%) HCA60 [4] [%] | concentration with highest activity [5] | Activity (%) [10^−5 mol · l^−1 BAP = 100%] [5] [%] | GI50 ([6]; HL60, 72 hours, Calcein AM) [µM] | GI50 ([7]; MCF7, 72 hours, Calcein AM) [µM] | GI50 ([8]; HOS, 72 hours, Calcein AM) [µM] | GI50 ([1]; Mus musculus, NIH3T3, 72 h) [µM] | GI50 ([6]; Homo sapiens, HL-60, 72 h) [µM] | GI50 ([7]; Homo sapiens, MCF7, 72 h) [µM] | GI50 ([8]; Homo sapiens, 72 h) [µM] | GI50 [9] [µM]
Cc1cc(Nc2ncnc3c2ncn3C2CCCCO2)ccc1O (stereo not drawn) [4-hydroxy-3-methylanilino / tetrahydropyran-2-yl] | > 167 | 7 | 10^−4 mol · l^−1 | 10^−4 mol · l^−1 | 15 | 3 | 4 | 19 | 10^−5 mol · l^−1 | 12 | > 167 | > 167 | > 167 |  |  |  |  | 
Oc1ccc(CNc2ncnc3c2ncn3C2CCCO2)cc1 (stereo not drawn) [6-(4-hydroxybenzylamino)-9-(tetrahydrofuran-2-yl)-purine] |  | 3 | 10^−4 mol · l^−1 | 10^−4 mol · l^−1 | 13 | 5 | 5 | 16 | 10^−5 mol · l^−1 | 27 |  |  |  | > 167 | > 167 | > 167 | > 167 | 
C/C(=C\CNc1ncnc2nc[nH]c12)CO [6-((E)-4-hydroxy-3-methylbut-2-enylamino)purine, reference compound] |  | 28.3 |  |  | 116 |  |  |  |  | 86.9 |  |  |  | > 167 | > 167 | > 167 | > 167 | > 167
Cc1cc(Nc2ncnc3c2ncn3C2CCCCO2)ccc1O (stereo not drawn) [4-hydroxy-5-methylanilino / tetrahydropyran-2-yl] | > 167 | 10 | 10^−4 mol · l^−1 | 10^−4 mol · l^−1 | 17 | 4 | 4 | 18 | 10^−5 mol · l^−1 | 10 | > 167 | > 167 | > 167 |  |  |  |  | 
C/C(=C\CNc1ncnc2c1ncn2C1CCCO1)CO (stereo not drawn) | > 167 | 45 | 10^−4 mol · l^−1 | 10^−4 mol · l^−1 | 117 |  |  |  | 10^−5 mol · l^−1 | 89 | > 167 | > 167 | > 167 |  |  |  |  | 
C/C(=C\CNc1ncnc2c1ncn2CCCCCl)CO | > 167 | 73.8 | 10^−4 mol · l^−1 | 10^−4 mol · l^−1 | 123.8 |  |  |  | 10^−4 mol · l^−1 | 103.5 | > 167 | > 167 | > 167 |  |  |  |  | 
CCOC(C)n1cnc2c(NC/C=C(\C)CO)ncnc21 (stereo not drawn) | > 167 | 92.5 | 10^−4 mol · l^−1 | 10^−4 mol · l^−1 | 92.5 |  |  |  | 10^−4 mol · l^−1 | 102.8 | > 167 | > 167 | > 167 |  |  |  |  | 
CCOCCn1cnc2c(NCc3ccc(O)cc3)ncnc21 [Compound 133, 6-(4-hydroxybenzylamine)-9-(1-ethoxyeth-2-yl)purine] | > 167 |  |  |  |  |  |  |  |  |  | > 167 | > 167 | > 167 |  |  |  |  | 
COc1ccc(CNc2ncnc3c2ncn3C2CCCCO2)cc1O (stereo not drawn) | > 167 | 47 | 10^−4 mol · l^−1 | 10^−4 mol · l^−1 | 41 | 5 | 7 | 29 | 10^−6 mol · l^−1 | 55 | > 167 | > 167 | > 167 |  |  |  |  | 
Cc1cccc(CNc2ncnc3c2ncn3C2CCCCO2)c1O (stereo not drawn) |  | 16.4 | 10^−4 mol · l^−1 | 10^−4 mol · l^−1 | 68.8 | 4 | 6 | 30 | 10^−5 mol · l^−1 | 9.2 |  |  |  |  |  |  |  | 
Oc1ccc(CNc2ncnc3c2ncn3CCCCCl)cc1 [4-hydroxybenzylamino / 4-chlorobutyl, 6-(4-hydroxybenzylamine)-9-(4-chlorobutyl)purine] | > 167 | 33.4 | 10^−4 mol · l^−1 | 10^−4 mol · l^−1 | 33.4 |  |  |  |  |  | > 167 | > 167 | > 167 |  |  |  |  | 
Oc1ccccc1CNc1ncnc2c1ncn2C1CCCO1 (stereo not drawn) [6-(2-hydroxybenzylamino)-9-(tetrahydrofuran-2-yl)-purine] |  | 26 | 10^−4 mol · l^−1 | 10^−4 mol · l^−1 | 33 | 4 | 2 | 26 | 10^−5 mol · l^−1 | 78 |  |  |  |  |  |  |  | 
